Columns and labels:
PGRMC1 = PGRMC1 (Homo sapiens, UniProt O00264); assay: Absorption spectrum of the PGRMC1 protein (CO binding to heme); details: FIG. 3
Excerpt: FIG. 3 is the graphs showing the absorption spectrum of the PGRMC1 protein.
Furthermore, PGRMC1 (Progesterone Receptor Membrane associated Component 1) was identified as one of the molecules involved with the inhibition of fatty acid or cholesterol uptake by CO. PGRMC1 is a heme binding protein, and an absorption peak is thought to have appeared at 419 nm because CO bound to the heme of PGRMC1 (FIG. 3). […] Thus, when the PGRMC1 gene was knocked down in a cell, the uptake of a fatty acid was suppressed (FIG. 4).

[1] = 25° C.; cited from earlier work
HuH7 cell [2] = assay: LDL uptake inhibition in a cell by CO (FITC-conjugated LDL, fluorescence microscope); type: cell-based, human; details: FITC-conjugated LDL 8 mg/ml, 1 μM CO—Ru, 2 hours, FIG. 2
Method: After culturing the HuH7 cell in the same manner as above in a dish covered with a slide glass, the medium was discarded, and fluorescence-labeled FITC-conjugated LDL (Molecular Probes) was added to serum free DMEM so as to give the final concentration of 8 mg/ml to carry out the culture for 2 hours (control). Additionally, at the same time with this procedure, 1 μM of CO—Ru was added in the same manner as above to carry out the analysis. After culturing, the medium was discarded, the cell was washed 3 times with PBS and DAPI reagent (2 ng/ml; Wako Pure Chemical Industries, Ltd.) was added to react for 5 minutes. The observation was carried out using a fluorescence microscope, whereby FITC-LDL derived Green fluorescence as the […] and DAPI derived Blue fluorescence were detected. […] On the other hand, in the cell to which CO—Ru was added, the margin of blue stained area is not stained green.

[3] = test system: human hepatoma cell line HuH7 cell; assay: Stearic acid uptake inhibition in a cell by CO (Nile Red staining, fluorescence microscope); type: cell-based; details: 400 μM stearic acid, 1 μM test substance, 12 hours, FIG. 1
Method: The human hepatoma cell line HuH7 cell was seeded in a 6-well plate (Iwaki) covered with a slide glass (1 cm^2; matsunami glass) and cultured using DMEM+10% FCS in a CO2 incubator overnight. After the culture, the medium was discarded, 1% BSA (Wako Pure Chemical Industries, Ltd.) wherein stearic acid (sigma) was dissolved in serum free DMEM to give a final concentration of 400 μM was added thereto, and the cell was cultured again for 12 hours in a CO2 incubator. Further, as a CO sustained-release drug, 1 μM of CO—Ru (Sigma CORM2 ([Ru(CO)3Cl2]2)) was used) or 1 μM of ruthenium complex as a control was added together with a fatty acid to carry out the culture. Subsequently, the medium was discarded, the cell was washed 3 times with PBS, and Nile Red reagent (sigma) dissolved in PBS on the slide glass so as to be 100 ng/ml was added to react for 5 minutes, thereby staining the fatty acid. Further, the cell was washed 3 times with PBS, DAPI reagent (2 ng/ml; Wako Pure Chemical Industries, Ltd.) was added to react for 5 minutes, thereby staining the nucleus. The nucleus was observed using a fluorescence microscope, whereby Nile Red derived Green fluorescence as the fatty acid and DAPI derived Blue fluorescence were detected. […]

HuH7 cell [4] = assay: Stearic acid and palmitic acid uptake in a cell wherein the PGRMC1 gene is knocked down by siRNA; type: cell-based, human; details: HuH7 cell transfected with siRNA
Method: In the experiment of Example 1, siRNA (sequence: […]) (SEQ ID NO: 1) targeting PGRMC1 was transfected to the cell line HuH7 cell derived from human hepatocellular carcinoma by the lipofection method (Lipofectamin 2000, INVITROGEN Corporation) to knockdown the PGMRMC1 gene. In the same manner as in Example 1, 1% BSA (Wako Pure Chemical Industries, Ltd.) wherein stearic acid (sigma) or palmitic acid was dissolved to give the final concentration of 400 μM was added to the HuH7 cell wherein the PGRMC1 gene was knocked down, and the cell was cultured. The medium was discarded, the cell was washed 3 times with PBS, and Nile Red reagent (sigma) dissolved in PBS on the slide glass so as to be 100 ng/ml was added to react for 5 minutes, thereby staining the fatty acid. Further, the cell was washed 3 times with PBS, DAPI reagent (2 ng/ml; Wako Pure Chemical Industries, Ltd.) was added to react for 5 minutes, thereby staining the nucleus. The nucleus was observed using a fluorescence microscope, whereby Nile Red derived Green fluorescence as the fatty acid and DAPI derived Blue fluorescence were detected. […] On the other hand, when palmitic acid (FIG. 4C) or stearic acid (FIG. 4D) was added to the cell wherein the PGRMC1 gene was knocked down, the margin of blue stained area is not stained green.

Chain of PGRMC1 (O00264 whole entry, species assumed): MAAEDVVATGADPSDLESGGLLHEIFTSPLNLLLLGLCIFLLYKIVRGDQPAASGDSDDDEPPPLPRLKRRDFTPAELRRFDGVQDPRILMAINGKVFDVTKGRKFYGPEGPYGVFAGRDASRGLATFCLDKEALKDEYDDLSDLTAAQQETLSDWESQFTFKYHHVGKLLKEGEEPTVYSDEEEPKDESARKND

Question: Which “absorption peak on CO binding to the heme of PGRMC1” value (PGRMC1) does the source give for [C-]#[O+] [CO, carbon monoxide] here?
Answer: 419 nm

Question: What about the “amount of CO that can be dissolved in aqueous solution” value [1] of the same compound?
Answer: about 21.4 mL per liter

Question: What does the source list for [C-]#[O+].[C-]#[O+].[C-]#[O+].[C-]#[O+].[C-]#[O+].[C-]#[O+].[Cl][Ru][Cl].[Cl][Ru][Cl] [CO—Ru, [Ru(CO)3Cl2]2]?
Answer: uptake of LDL in the cell (FITC-LDL green fluorescence) (HuH7 cell [2]): the uptake of LDL was inhibited; uptake of stearic acid in the cell (green Nile Red staining) [3]: the uptake of stearic acid was inhibited

Question: Which “uptake of palmitic acid in the PGRMC1 knockdown cell” value (HuH7 cell [4]; 400 μM palmitic acid, FIG. 4C) does the source give for “siRNA: siRNA (sequence: GAUGUGACCAAAGGCCCGCAAAUUCU) targeting PGRMC1 (listed as RNA, chemistry not given here)” here?
Answer: inhibited

Question: And the “uptake of stearic acid in the PGRMC1 knockdown cell” value (HuH7 cell [4]; 400 μM stearic acid, FIG. 4D)?
Answer: inhibited

Source: US20140099385A1, “INHIBITION OF FATTY ACID AND C[…] BY CARBON MONOXIDE (CO)” (priority 2011, published 2014)
